# Columns and labels:
# camelpox = experiment: microbe, parasite or virus in culture; type: cell-based; settings: read-out: Camelpox EC50
# [1] = test system: monkeypox virus (Zaire (V79-1-005-scab)); experiment: microbe, parasite or virus in culture; type: cell-based; settings: read-out: Monkeypox EC50
# Vaccinia virus (NYCBH) = experiment: microbe, parasite or virus in culture; type: cell-based; settings: Orthopoxvirus vaccinia, Vero, 72 h, read-out: Vaccinia EC50
# wild type cowpox virus = experiment: microbe, parasite or virus in culture; type: cell-based; settings: read-out: Cowpox EC50
smiles,measurement,setting,value
"O=C(NN1C(=O)[C@@H]2C3C=CC(C4CC43)[C@@H]2C1=O)c1ccc(C(F)(F)F)cc1 (stereo partly shown) [Example 1, 4-Trifluoromethyl-N-(3,3a,4,4a,5,5a,6,6a,- octahydro-1,3-dioxo-4,6-ethenocycloprop[f]isoindol-2(1H)-yl)-benzamide]",EC50,camelpox,< 500 nM
same,EC50,[1],< 500 nM
same,solubility,"physchem; aqueous with cosolvent or surfactant or cyclodextrin, ST-246 Solubility",68.7 µg/mL
same,solubility,"physchem; organic solvent or mixture, ST-246 Solubility",60800 µg/mL
same,solubility,"physchem; organic solvent or mixture, Solubility in organic solvents",60000 µg/mL
same,solubility,"physchem; pH 6.8, aqueous buffer, ST-246 Solubility",7 µg/mL
same,solubility,"physchem; simulated gastric fluid, ST-246 Solubility",37.5 µg/mL
same,solubility,"physchem; water, ST-246 Solubility",26 µg/mL
same,EC50,Vaccinia virus (NYCBH),< 500 nM
same,EC50,wild type cowpox virus,< 500 nM

# — US8039504B2 (priority 2003, dated 2011)
